pIC50: −log10 of the molar value.

The target of the experiment is T1, human CaV3.2 (Homo sapiens, UniProt O95180).
T1 construct: expressed in transfected cells
T1 sequence (O95180 whole entry): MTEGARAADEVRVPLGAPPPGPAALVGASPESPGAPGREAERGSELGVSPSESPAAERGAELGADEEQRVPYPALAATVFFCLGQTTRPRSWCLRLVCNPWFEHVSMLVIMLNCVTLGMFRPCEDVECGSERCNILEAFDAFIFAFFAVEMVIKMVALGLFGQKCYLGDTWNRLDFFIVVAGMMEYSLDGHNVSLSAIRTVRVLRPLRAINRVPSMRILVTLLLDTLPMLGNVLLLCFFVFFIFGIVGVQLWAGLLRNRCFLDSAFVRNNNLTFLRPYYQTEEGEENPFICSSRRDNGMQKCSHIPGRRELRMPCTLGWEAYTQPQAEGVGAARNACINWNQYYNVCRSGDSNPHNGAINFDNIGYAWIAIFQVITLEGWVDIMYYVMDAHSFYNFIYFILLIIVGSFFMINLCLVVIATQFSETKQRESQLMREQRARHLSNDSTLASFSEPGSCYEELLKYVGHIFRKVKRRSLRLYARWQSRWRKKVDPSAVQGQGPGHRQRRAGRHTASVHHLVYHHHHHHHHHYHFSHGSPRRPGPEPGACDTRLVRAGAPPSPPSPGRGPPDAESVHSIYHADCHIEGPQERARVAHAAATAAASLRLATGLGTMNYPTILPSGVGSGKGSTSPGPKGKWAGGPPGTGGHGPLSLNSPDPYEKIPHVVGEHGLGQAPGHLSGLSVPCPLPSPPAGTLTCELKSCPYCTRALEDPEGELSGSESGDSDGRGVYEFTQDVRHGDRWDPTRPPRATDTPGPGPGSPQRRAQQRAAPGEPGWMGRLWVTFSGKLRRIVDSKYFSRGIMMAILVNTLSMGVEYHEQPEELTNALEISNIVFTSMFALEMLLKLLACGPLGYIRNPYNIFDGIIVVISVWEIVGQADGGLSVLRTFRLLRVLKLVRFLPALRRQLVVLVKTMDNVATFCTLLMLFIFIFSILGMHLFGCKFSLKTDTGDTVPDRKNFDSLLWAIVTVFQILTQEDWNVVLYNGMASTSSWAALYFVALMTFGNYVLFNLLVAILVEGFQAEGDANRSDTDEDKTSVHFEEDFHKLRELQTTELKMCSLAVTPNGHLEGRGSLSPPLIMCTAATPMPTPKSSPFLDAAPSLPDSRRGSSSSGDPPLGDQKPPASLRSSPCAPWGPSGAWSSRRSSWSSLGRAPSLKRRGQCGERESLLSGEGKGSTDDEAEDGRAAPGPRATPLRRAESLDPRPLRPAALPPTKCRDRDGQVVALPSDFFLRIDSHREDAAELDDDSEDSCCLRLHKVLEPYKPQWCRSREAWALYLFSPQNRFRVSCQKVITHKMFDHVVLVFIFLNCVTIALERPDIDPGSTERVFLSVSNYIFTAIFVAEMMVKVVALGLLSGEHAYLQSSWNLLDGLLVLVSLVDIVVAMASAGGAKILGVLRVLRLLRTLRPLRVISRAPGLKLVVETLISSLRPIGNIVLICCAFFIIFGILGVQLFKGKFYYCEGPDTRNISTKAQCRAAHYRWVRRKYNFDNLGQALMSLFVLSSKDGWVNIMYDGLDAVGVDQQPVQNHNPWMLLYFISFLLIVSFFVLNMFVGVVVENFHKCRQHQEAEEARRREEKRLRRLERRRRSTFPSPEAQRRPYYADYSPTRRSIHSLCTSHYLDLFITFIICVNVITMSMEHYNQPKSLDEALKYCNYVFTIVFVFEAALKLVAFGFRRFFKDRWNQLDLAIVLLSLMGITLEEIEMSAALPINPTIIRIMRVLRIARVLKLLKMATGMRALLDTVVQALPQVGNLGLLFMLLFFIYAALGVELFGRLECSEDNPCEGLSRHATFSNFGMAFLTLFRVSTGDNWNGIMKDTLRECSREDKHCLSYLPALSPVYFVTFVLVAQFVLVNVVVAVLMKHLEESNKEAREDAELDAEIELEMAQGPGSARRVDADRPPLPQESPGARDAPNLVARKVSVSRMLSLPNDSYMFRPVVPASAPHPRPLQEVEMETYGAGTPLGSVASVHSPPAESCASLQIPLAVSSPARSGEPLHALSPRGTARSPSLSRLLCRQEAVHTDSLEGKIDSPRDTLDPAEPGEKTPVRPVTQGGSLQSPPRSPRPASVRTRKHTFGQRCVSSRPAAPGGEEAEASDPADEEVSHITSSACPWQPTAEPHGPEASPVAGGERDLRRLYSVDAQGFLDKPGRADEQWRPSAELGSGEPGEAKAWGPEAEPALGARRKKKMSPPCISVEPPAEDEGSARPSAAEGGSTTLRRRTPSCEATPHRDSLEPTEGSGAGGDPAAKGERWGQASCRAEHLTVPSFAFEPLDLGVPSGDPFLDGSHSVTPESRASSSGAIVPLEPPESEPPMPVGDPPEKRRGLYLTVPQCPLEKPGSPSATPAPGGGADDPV
The experiment in a line: IonWorks screen for hCaV3.2 (T-type calcium current, voltage clamp). The settings on record: IonWorks HT, HEK cells, 10 min incubation, pulse 10, 8-point curve; read-out: IW hCav3 2 IC50. The experiment is classed as cell-based. An excerpt:
Functional evaluation of voltage-gated ion channels can be used to determine potency and/or single concentration efficacy of the Azetidinone Derivatives of the present invention. Two different methodologies can be used to measure ion currents: the lonWorks HT (Molecular Devices, Sunnyvale, Calif.) a moderate throughput voltage clamp screening platform that utilizes 96-well compound plates and conventional whole cell patch clamp for lower throughput, higher fidelity determinations.
HEK cells are transiently transfected and then selected for stable heterologous expression of different channel proteins of interest. Calcium channel cell lines expressed a resting potassium current, human Kir2.1, and the pore forming α-subunit of voltage-gated calcium channels. In the case of CaV2.1 cells the auxiliary subunit, β2a, is also expressed. Calcium channel lines that are used to generate the data will express either human CaV3.2, rat CaV3.2 or human CaV2.1. The human heart sodium channel, hNaV1.5, are stably expressed in CHO cells.
Cell lines can be grown at 37° C. in humidified incubators, equilibrated with 95% air/5% CO2. CHO cells can be grown in Ham's F-12 medium. HEK cells can be grown in DMEM. All media are supplemented with 10% heat-inactivated fetal bovine serum, penicillin, streptomycin and appropriate selection antibiotics (zeocin, geneticin and/or hygromycin). Cells are passaged when 80% confluent or less.
IonWorks Screen for hCaV3.2
The extracellular buffer for experiments using this instrument contained the following (mM) (NaCl 125, HEPES 10, KCl 5.4, CaCl2 1.8, MgCl2 1.8, 0.2 BaCl2 pH 7.35). The lonWorks uses amphotericin to gain electrical access to the cell interior. The internal solution contained (mM concentrations): 130 K-gluconate, 20 KCl, 5 HEPES-KOH (pH 7.25), 2 CaCl2, 1 MgCl2. Amphotericin added at 5 mg in 65 mL when present (in 650 μL DMSO). All internal and external solutions for this experiment contain 1% DMSO. Cells were acutely trypsinized from a T-75 flask and resuspended in extracellular buffer at a density of 2×10^5 cells/mL.
Experiments were performed at room temperature. Transmembrane potential was held at −100 mV for 5 seconds prior to running the voltage protocol. During this time leak currents were measured during a step to −110 mV (200 milliseconds). T-type calcium currents were activated with a 250 millisecond step to −20 mV. This depolarization step was repeated for a total of 10 pulses with an interpulse interval of 1 second. Data were excluded if the following acceptance criteria were not met: total resistance for the pre-compound scan>65 MΩ, pre-compound current>250 pA, post compound total resistance>50 MΩ.
T-type currents were measured as the peak inward current minus the current at the end of the 250 msec step to −20 mV. After the recoding configuration was established there was a pre-compound measurement of current amplitude. Compound was added as a 3× solution containing 1% DMSO. After incubation with compound for 10 minutes currents were measured again. The current amplitude after compound addition was divided by the pre-compound current for pulse 10 to determine the fraction of current remaining after compound addition. For each compound, 8-point concentration-effect relationships were measured with ½ log serial dilutions.
A general note: In patch-clamp work, channel activity is measured electrically.
As usually defined, the pIC50 is −log10 of the IC50, conventionally taken in molar units. In the case of `CC[C@H](C)[C@H](NC(=O)N1CCC2(CC1)C(=O)N(C(C)C)C2c1ccc(Br)cc1)C(=O)OC` (stereo partly drawn), the pIC50 was 6.56.
As for `CCC(C)[C@H](NC(=O)N1CCC2(CC1)C(=O)N(c1ccc(F)c(Cl)c1)C2c1ccc(Br)cn1)C(=O)OC` (stereo partly drawn), the figure is 7.00; as for `CCC(C)[C@H](NC(=O)N1CCC2(CC1)C(=O)N(c1ccc(F)c(Cl)c1)C2c1ccc(-c2cccnc2)cn1)C(=O)OC` (stereo partly drawn), 6.24; as for `CCC(C)[C@H](NC(=O)N1CCC2(CC1)C(=O)N(c1ccc(F)c(Cl)c1)C2c1ccc(-c2ccncc2)cn1)C(=O)OC` (stereo partly drawn), 6.20.
As for `CCC(C)[C@H](NC(=O)N1CCC2(CC1)C(=O)N(c1ccc(F)c(Cl)c1)C2c1ccc(-c2ccccc2)cn1)C(=O)OC` (stereo partly drawn), the figure is 7.08; as for `C[C@H](NC(=O)N1CCC2(CC1)C(=O)N(c1ccc(F)c(Cl)c1)C2c1ccc(Br)cn1)c1ccc(F)cc1` (stereo partly drawn), 6.87.
As for `O=C(Nc1cc(F)cc(F)c1)N1CCC2(CC1)C(=O)N(c1ccc(F)c(Cl)c1)C2c1ccc(Br)cn1` (stereo not drawn), the figure is 7.28; as for `CCC(C)[C@H](NC(=O)N1CCC2(CC1)C(=O)N(c1ccc(F)c(Cl)c1)C2c1ccc(C#N)cn1)C(=O)OC` (stereo partly drawn), 6.59.
For the compound `N#Cc1cncc(N2C(=O)C3(CCN(C(=O)Nc4cccc(C(F)(F)F)c4)CC3)C2c2ccccn2)c1` (stereo not drawn), the negative logarithm of the IC50 (pIC50) was 5.90.
Turning to `O=C(Nc1cccc(Cl)c1)N1CCC2(CC1)C(=O)N(c1ccc(F)c(Cl)c1)C2c1ccccn1` (stereo not drawn), the negative-log IC50 (pIC50) is 6.73.
For `O=C(Nc1cc(F)cc(F)c1)N1CCC2(CC1)C(=O)N(c1cccc(Cl)c1)C2c1cccc[n+]1O` (stereo not drawn), the pIC50 was 6.80.
With `C[C@H](NC(=O)N1CCC2(CC1)C(=O)N(c1cncc(Cl)c1)C2c1ccccn1)c1ccc(F)cc1` (stereo partly drawn), the pIC50 was 5.49.
Regarding `N#Cc1cccc(NC(=O)N2CCC3(CC2)C(=O)N(c2ccc(F)c(Cl)c2)C3c2ccccn2)c1` (stereo not drawn), the negative-log IC50 (pIC50) is 6.45.
As for `O=C(Nc1cc(F)cc(F)c1)N1CCC2(CC1)C(=O)N(c1cncc(Cl)c1)C2c1ccccn1` (stereo not drawn), the figure is 6.29.
As to `O=C(Nc1cccc(F)c1)N1CCC2(CC1)C(=O)N(c1ccc(F)c(Cl)c1)C2c1ccccn1` (stereo not drawn), the pIC50 is 6.43.
As to `N#Cc1cncc(N2C(=O)C3(CCN(C(=O)Nc4cc(F)cc(F)c4)CC3)C2c2ccccn2)c1` (stereo not drawn), the pIC50 is 5.62.
As for `N#Cc1cccc(NC(=O)N2CCC3(CC2)C(=O)N(c2cncc(Cl)c2)C3c2ccccn2)c1` (stereo not drawn), the figure is 5.83; as for `O=C(Nc1cc(F)cc(F)c1)N1CCC2(CC1)C(=O)N(c1cncc(F)c1)C2c1ccccn1` (stereo not drawn), 5.68; as for `CC[C@H](C)[C@H](NC(=O)N1CCC2(CC1)C(=O)N(c1cncnc1)C2c1ccccn1)C(=O)OC` (stereo partly drawn), 5.58.
In the case of `C[C@H](NC(=O)N1CCC2(CC1)C(=O)N(c1cncnc1)C2c1ccccn1)c1ccc(F)cc1` (stereo partly drawn), the negative logarithm of the IC50 (pIC50) is 5.70.
For `O=C(Nc1cc(F)cc(F)c1)N1CCC2(CC1)C(=O)N(c1ccccn1)C2c1ccccn1` (stereo not drawn), the pIC50 was 5.94.
As for `O=C(Nc1cccnc1)N1CCC2(CC1)C(=O)N(c1cccc(Cl)c1)C2c1ccccn1` (stereo not drawn), the figure is 5.95; as for `CC[C@H](C)[C@H](NC(=O)N1CCC2(CC1)C(=O)N(c1cccc(F)c1)C2c1ccc(Cl)cc1)C(=O)OC(C)C` (stereo partly drawn), 7.35.
Take `C[C@@H](NC(=O)N1CCC2(CC1)C(=O)N(c1cccc(F)c1)C2c1ccc(Cl)cc1)c1ccc(F)cc1` (stereo partly drawn): the pIC50 was 6.17.
As for `COC(=O)[C@H](COC(C)(C)C)NC(=O)N1CCC2(CC1)C(=O)N(c1cccc(F)c1)C2c1ccc(Cl)cc1` (stereo partly drawn), the negative-log IC50 (pIC50) was 6.60.
Under `CC[C@H](NC(=O)N1CCC2(CC1)C(=O)N(c1cccc(F)c1)C2c1ccc(Cl)cc1)c1ccccc1` (stereo partly drawn) stands 6.65; under `C[C@H](NC(=O)N1CCC2(CC1)C(=O)N(c1cccc(F)c1)C2c1ccc(Cl)cc1)c1ccccc1` (stereo partly drawn), 6.86.
Under `CC[C@H](C)[C@@H](C#N)NC(=O)N1CCC2(CC1)C(=O)N(c1cccc(F)c1)C2c1ccc(Cl)cc1` (stereo partly drawn) stands 7.46; under `O=C(NCc1cccc(F)c1)N1CCC2(CC1)C(=O)N(c1cccc(F)c1)C2c1ccc(Cl)cc1` (stereo not drawn), 6.27; under `C[C@@H](NC(=O)N1CCC2(CC1)C(=O)N(c1cccc(F)c1)C2c1ccc(Cl)cc1)c1ccccc1` (stereo partly drawn), 6.45.
As for `C[C@H](NC(=O)N1CCC2(CC1)C(=O)N(c1cccc(F)c1)C2c1ccc(Cl)cc1)c1ccc(F)cc1` (stereo partly drawn), the figure is 7.09.
With `CC(C)CN1C(=O)C2(CCN(C(=O)N[C@@H](C)c3ccc(F)cc3)CC2)C1c1ccc(Cl)cc1` (stereo partly drawn), the negative-log IC50 (pIC50) is 5.74.
Regarding `CS(=O)(=O)c1ccccc1N1C(=O)C2(CCN(C(=O)Nc3cc(F)cc(F)c3)CC2)C1c1ccc(Cl)cc1` (stereo not drawn), the negative-log IC50 (pIC50) was 7.03.
For `O=C(NCc1ccccc1F)N1CCC2(CC1)C(=O)N(c1cccc(F)c1)C2c1ccc(Cl)cc1` (stereo not drawn), the negative-log IC50 (pIC50) is 6.57.
`C[C@H](NC(=O)N1CCC2(CC1)C(=O)N(c1ccccc1S(C)(=O)=O)C2c1ccc(Cl)cc1)c1ccc(F)cc1` (stereo partly drawn): the negative logarithm of the IC50 (pIC50) is 6.21.
`CC[C@H](C)[C@H](NC(=O)N1CCC2(CC1)C(=O)N(c1cccc(F)c1)C2c1ccc(Cl)cc1)C(=O)NC` (stereo partly drawn): the pIC50 is 6.74.
As for `CC[C@H](C)[C@H](NC(=O)N1CCC2(CC1)C(=O)N(c1ccccc1S(C)(=O)=O)C2c1ccc(Cl)cc1)C(=O)OC` (stereo partly drawn), the figure is 6.96; as for `CC[C@H](C)[C@H](NC(=O)N1CCC2(CC1)C(=O)N(c1cccc(F)c1)C2c1ccc(Cl)cc1)C(N)=O` (stereo partly drawn), 6.02; as for `COC(=O)[C@H](C)NC(=O)N1CCC2(CC1)C(=O)N(c1cccc(F)c1)C2c1ccc(Cl)cc1` (stereo partly drawn), 6.08.
For `C[C@H](NC(=O)N1CCC2(CC1)C(=O)N(c1cncnc1)C2c1ccc(Cl)cc1)c1ccc(F)cc1` (stereo partly drawn), the pIC50 was 5.63.
As for `CC(NC(=O)N1CCC2(CC1)C(=O)N(c1cccc(F)c1)C2c1ccc(Cl)cc1)c1ccccn1` (stereo not drawn), the figure is 5.66; as for `CC(NC(=O)N1CCC2(CC1)C(=O)N(c1cccc(F)c1)C2c1ccc(Cl)cc1)c1ccncc1` (stereo not drawn), 6.16; as for `CC(NC(=O)N1CCC2(CC1)C(=O)N(c1cccc(F)c1)C2c1ccc(Cl)cc1)c1cccnc1` (stereo not drawn), 5.61.
Under `O=C(NCc1ccccn1)N1CCC2(CC1)C(=O)N(c1cccc(F)c1)C2c1ccc(Cl)cc1` (stereo not drawn) stands 5.88.
Under `C[C@H](NC(=O)N1CCC2(CC1)C(=O)N(c1cncnc1)C2c1cccnc1)c1ccc(F)cc1` (stereo partly drawn) stands 5.59.
For the compound `CC[C@H](C)[C@H](NC(=O)N1CCC2(CC1)C(=O)N(c1cccc(F)c1)C2c1ccc(Cl)cc1)C(=O)OC` (single isomer, unassigned), the pIC50 was 7.24.
Under `N#Cc1cccc(NC(=O)N2CCC3(CC2)C(=O)N(c2cccc(F)c2)C3c2ccc(Cl)cc2)c1` (single isomer, unassigned) stands 6.74.
In the case of `O=C(Nc1cc(F)cc(F)c1)N1CCC2(CC1)C(=O)N(c1cccc(F)c1)C2c1ccc(Cl)cc1` (single isomer, unassigned), the pIC50 is 6.41.
Under `O=C(Nc1cccc(C(F)(F)F)c1)N1CCC2(CC1)C(=O)N(c1ccc(F)c(Cl)c1)C2c1ccccn1` (stereo not drawn) [drawing 560] stands 8.36.
`O=C(Nc1cccc(C(F)(F)F)c1)N1CCC2(CC1)C(=O)N(c1ccc(F)c(Cl)c1)C2c1ccccn1` (stereo not drawn) [drawing 561]: the pIC50 was 7.08.
Under `O=C(Nc1cccc(C(F)(F)F)c1)N1CCC2(CC1)C(=O)N(c1cncc(Cl)c1)C2c1ccccn1` (stereo not drawn) [drawing 562] stands 6.81.

Source of the values: patent publication US20080076751A1, “Azetidinone Derivatives and Methods of Use Thereof” (priority 2006, published 2008).
